According to patent publication US8884022B2, “Inhibition of bacterial biofilms with aryl carbamates” (North Carolina State University, priority 2010, dated 2014):

Columns and labels:
E. coli = assay: Biofilm inhibition, crystal violet assay; format: cell-based; conditions: for inhibition at 200 µM / IC50: Escherichia coli; for inhibition at 200 µM: read-out: % Inhibition of biofilm formation; for IC50: concentration that inhibits 50% of biofilm formation
Protocol: (§1) Procedure to Determine the Inhibitory Effect of Test Compounds.
(§2) Inhibition assays were performed by taking an overnight culture of bacterial strain and subculturing it at an OD600 of 0.01 into the medium. Stock solutions of predetermined concentrations of the test compound were then made in the medium. These stock solutions were aliquoted (100 μL) into the wells of the 96-well PVC microtiter plate. Sample plates were then wrapped in GLAD Press n'Seal® followed by an incubation under stationary conditions for 24 h at 37° C. After incubation, the medium was discarded from the wells and the plates were washed thoroughly with water. Plates were then stained with 100 μL of 0.1% solution of crystal violet (CV) and then incubated at ambient temperature for 30 min. Plates were washed with water again and the remaining stain was solubilized with 200 μL of 95% ethanol. A sample of 125 μL of solubilized CV stain from each well was transferred to the corresponding wells of a polystyrene microtiter dish. Biofilm inhibition was quantitated by measuring the OD540 of each well in which a negative control lane wherein no biofilm was formed served as a background and was subtracted out.

MRSA = assay: Biofilm inhibition, crystal violet assay; format: cell-based, methicillin-resistant S. aureus; conditions: for biofilm inhibition activity (in words) / inhibition at 200 µM / IC50: MRSA; for inhibition at 200 µM / IC50: Staphylococcus aureus; for inhibition at 200 µM: read-out: % Inhibition of biofilm formation; for IC50: concentration that inhibits 50% of biofilm formation
Protocol: as §1, §2

[1] = tested on: S. aureus strain ATCC 29213; assay: Biofilm inhibition, crystal violet assay; format: cell-based; conditions: for biofilm inhibition activity (in words): 29213, 200 μM; for IC50: Staphylococcus aureus, ATCC29213, S. aureus ATCC 29213
Protocol: (§3) Given the potency of our lead compounds toward inhibiting MRSA biofilms, we next explored their activity against various other S. aureus strains. […] IC50 values were determined for each compound against each of the S. aureus strains.
as §1, §2

[2] = tested on: S. aureus strain ATCC 25923; assay: Biofilm inhibition, crystal violet assay; format: cell-based; conditions: Staphylococcus aureus, ATCC25923; S. aureus ATCC 25923
Protocol: as §3, §1, §2

[3] = tested on: S. aureus strain ATCC 29740; assay: Biofilm inhibition, crystal violet assay; format: cell-based; conditions: Staphylococcus aureus, ATCC29740; S. aureus ATCC 29740
Protocol: as §3, §1, §2

[4] = tested on: red blood cell (difibrinated sheep blood); assay: Red blood cell hemolysis assay; format: cell-based; conditions: up to the highest concentration tested (1.2 mM)
Protocol: This was assessed using a red blood cell hemolysis assay using difibrinated sheep blood.
Red Blood Cell Hemolysis Assay.
Hemolysis assays were performed on mechanically difibrinated sheep blood (Hemostat Labs: DSB100). 1.5 mL of blood was placed into a microcentrifuge tube and centrifuged at 10000 rpm for ten minutes. The supernatant was removed and then the cells were resuspended with 1 mL of phosphate-buffered saline (PBS). The suspension was centrifuged, the supernatant was removed and cells resuspended two more times. The final cell suspension was then diluted tenfold. Test compound solutions were made in PBS in small culture tubes and then added to aliquots of the tenfold suspension dilution. PBS alone was used as a negative control and as a zero hemolysis marker whereas a 1% Triton X sample was used as a positive control and the 100% lysis marker. Samples were then placed in an incubator at 37° C. while being shaken at 200 rpm for one hour. After one hour, the samples were transferred to microcentrifuge tubes and then centrifuged at 10000 rpm for ten minutes. The resulting supernatant was diluted by a factor of 40 in distilled water. The absorbance of the supernatant was measured with a UV spectrometer at a 540 nm wavelength.

S. epidermidis = assay: Biofilm inhibition, crystal violet assay; format: cell-based; conditions: 200 μM
Protocol: as §1, §2

VRE = assay: Biofilm inhibition, crystal violet assay; format: cell-based, vancomycin-resistant Enterococcus faecium; conditions: 200 μM
Protocol: as §1, §2

R. salexigens [5] = assay: Biofilm inhibition, crystal violet assay; format: cell-based, Rhodospirillum salexigens; conditions: 200 μM
Protocol: as §1, §2

MDRAB = assay: Biofilm inhibition, crystal violet assay; format: cell-based, multi-drug resistant Acinetobacter baumannii; conditions: 200 μM
Protocol: as §1, §2

R. salexigens [6] = conditions: reported by Yamada et al.; cited from earlier work

Which inhibition at 200 µM (E. coli; 200 μM) does the source give for `CC(C)[C@@H]1CC[C@@H](C)C[C@H]1OC(=O)NCCn1nccn1` [Compound 5a, (1R,2S,5R)-2-isopropyl-5-methylcyclohexyl 2-(2H-1,2,3-triazol-2-yl)ethylcarbamate] here?
The inhibition at 200 µM was over 80%.

What about the IC50 (E. coli) of the same compound?
The IC50 was 28.3 µM.

With `CC(C)[C@H]1CC[C@H](C)C[C@@H]1OC(=O)NCCc1ccccn1` [Compound 9k, (1S,2R,5S)-2-isopropyl-5-methylcyclohexyl 2-(pyridin-2-yl)ethylcarbamate] as the compound, how does the “biofilm inhibition activity (in words)” value (MRSA; 200 μM) read?
Its value is “identical antibiofilm properties as their enantiomers”.

What about the “biofilm inhibition activity (in words)” value [1] of the same compound?
The value was “identical antibiofilm properties as their enantiomers”.

What about the melting point of the same compound?
Its melting point is 57 to 59 °C.

For `CC(C)[C@@H]1CC[C@@H](C)C[C@H]1OC(=O)NCCc1ccccn1` [Compound 9a, (1R,2S,5R)-2-isopropyl-5-methylcyclohexyl 2-(pyridin-2-yl)ethylcarbamate], which inhibition at 200 µM (E. coli; 200 μM) is on record?
Its inhibition at 200 µM is over 80%.

What about the IC50 (E. coli) of the same compound?
Its IC50 is 34.6 µM.

And the inhibition at 200 µM (MRSA; 200 μM)?
The inhibition at 200 µM was over 90%.

What about the IC50 (MRSA) of the same compound?
The IC50 was 4.87 µM.

And the IC50 [2]?
Its IC50 is 19.7 µM.

What about the IC50 [1] of the same compound?
Its IC50 is 124 µM.

What about the IC50 [3] of the same compound?
The IC50 was 82.2 µM.

What about the “red blood cell lysis” value [4] of the same compound?
The value was “no red blood cell lysis”.

And the melting point?
The melting point was 59 to 63 °C.

Which melting point does the source give for `CC(C)CCC[C@@H](C)C1CCC2[C@@H]3CC=C4C[C@@H](OC(=O)NCCc5ccc(N)cc5)CC[C@]4(C)[C@H]3CC[C@]12C` (stereo partly shown) here?
The melting point was 135 to 139 °C.

For `CCOC(=O)NCCc1ccccc1` [Compound 2d, ethyl N-(2-phenethyl) carbamate], which “% Inhibition of biofilm formation” value (E. coli; 200 μM) is on record?
Its value is 40.8%.

What about the “% Inhibition of biofilm formation” value (S. epidermidis) of the same compound?
The value was 63.1%.

And the “% Inhibition of biofilm formation” value (MRSA; 200 μM)?
Its value is 68.1%.

And the “% Inhibition of biofilm formation” value (VRE)?
The value was 80.2%.

And the “% Inhibition of biofilm formation” value (R. salexigens [5])?
The value was 59.7%.

What about the “% Inhibition of biofilm formation” value (MDRAB) of the same compound?
Its value is 52.0%.

And the “red blood cell lysis” value [4]?
Its value is “no red blood cell lysis”.

What about the “antibiofilm activity reported in the literature” value (R. salexigens [6]) of the same compound?
The value was “moderate antibiofilm activity”.

Which inhibition at 200 µM (MRSA; 200 μM) does the source give for `CC(C)[C@@H]1CC[C@@H](C)C[C@H]1OC(=O)NCCc1ccc(N)cc1` [Compound 8a, (1R,2S,5R)-2-isopropyl-5-methylcyclohexyl 4-aminophenethylcarbamate] here?
The inhibition at 200 µM was over 90%.

And the IC50 (MRSA)?
Its IC50 is 49.8 µM.

What about the IC50 [2] of the same compound?
Its IC50 is 71.9 µM.

What about the IC50 [1] of the same compound?
The IC50 was 21.2 µM.

And the IC50 [3]?
Its IC50 is 24.3 µM.

And the “red blood cell lysis” value [4]?
The value was “no red blood cell lysis”.

With `COC1CC(C)CCC1C(C)C` (single isomer, unassigned; (-)) [(−)-menthol methyl ether, reference compound] as the compound, how does the “biofilm inhibition activity (in words)” value (MRSA; 200 μM) read?
The value was “completely inactive”.

And the “biofilm inhibition activity (in words)” value [1]?
The value was “completely inactive”.

With `CC1CCC(C(C)C)C(O)C1` (single isomer, unassigned; (-)) [(−)-menthol, reference compound] as the compound, how does the “biofilm inhibition activity (in words)” value (MRSA; 200 μM) read?
Its value is “completely inactive”.

What about the “biofilm inhibition activity (in words)” value [1] of the same compound?
The value was “completely inactive”.

With `CC(C)CCC[C@@H](C)C1CCC2[C@@H]3CC=C4C[C@@H](OC(=O)N5CCc6ccccc65)CC[C@]4(C)[C@H]3CC[C@]12C` (stereo partly shown) as the compound, how does the melting point read?
Its melting point is 142 to 145 °C.
